{
  "source": "patent US20250295662A1",
  "about": "“USE OF CDK4/6 INHIBITOR IN TREATMENT OF DEDIFFERENTIATED LIPOSARCOMA” (priority 2022, published 2025)",
  "key": {"[1]": {"tested_on": "dedifferentiated liposarcoma", "assay": "Clinical trial in dedifferentiated liposarcoma: safety (NCI-CTC AE 5.0)", "assay_type": "in vivo, human", "conditions": "patients, 28-day cycle", "text": "(§1) In this study, a randomized, double-blind, placebo-controlled parallel trial design or a single arm trial design was employed. For the parallel control trial, after all patients signed the informed consent, subjects eligible for enrollment by screening were randomized (1:1) into two groups, i.e., a test group given the capsule of the compound of formula I and a control group given the placebo of the capsule of the compound of formula I, with 4 weeks (28 days) being 1 cycle; for the single arm trial, the administration regimen was the same as that for the test group of the parallel control trial. The efficacy and safety of the capsule of the compound of formula I in the treatment of dedifferentiated liposarcoma was evaluated by the clinical trials of the present disclosure.\n(§2) Hemoglobin (HGB) ≥90.0 g/L; • b. Absolute neutrophil count (ANC) ≥1.5×10^9/L; • c. Platelet count (PLT) ≥90×10^9/L; • 2) Biochemical examination criteria: • a. Total bilirubin (TBIL) ≤1.5×upper limit of normal ULN; for patients with Gilbert syndrome, ≤3×ULN; • b. Alanine aminotransferase (ALT) and aspartate aminotransferase (AST) ≤3×ULN. If liver metastasis is accompanied, ALT and AST ≤5×ULN; • c.\n(§3) Capsules of the compound of formula (I): strength: 50 mg or 60 mg, provided by Chia Tai Tianqing Pharmaceutical Group Co., Ltd.\n(§4) Capsules of the compound of formula (I): 180 mg/each administration (based on the compound of formula (I)), oral administration at fasting, once daily, and 28 consecutive days of administration as one treatment cycle. Placebo of the capsule of the compound of formula (I): 0 mg/each administration (based on the compound of formula (I)), oral administration at fasting, once daily, and 28 consecutive days of administration as one treatment cycle.\nSafety evaluation criteria: the severity of adverse events was determined using the NCI-CTC AE 5.0 criteria. Adverse event record forms including time of occurrence, severity, relevance to the studied treatment, duration, measures taken, and the final state of the subject should be faithfully filled out during the trial."}, "[2]": {"tested_on": "dedifferentiated liposarcoma", "assay": "Clinical trial in dedifferentiated liposarcoma: efficacy (RECIST 1.1)", "assay_type": "in vivo, human", "conditions": "180 mg oral once daily", "text": "as §1, §2, §3, §4\nEfficacy evaluation criteria: disease state was determined using the RECIST 1.1 criteria."}, "[3]": {"conditions": "capsules 180 mg oral once daily"}},
  "data": [
    {"molecule": "CC(C)c1c2cc(-c3nc(Nc4ccc(N5CCNCC5)cn4)ncc3F)ccc2nn1C", "note": "[compound of formula (I)]", "values": [
      {"measurement": "Gastrointestinal reactions (diarrhea, vomiting, and the like), grade", "setting": "[1]; capsules 180 mg oral at fasting once daily, mainly this grade, controlled after symptomatic treatment", "result": "1-2 grade"},
      {"measurement": "total incidence rate of TEAEs of grade 3 or above", "setting": "[1]; [3]", "result": 9, "unit": "%"},
      {"measurement": "total safety", "setting": "[1]; [3]", "result": "good"},
      {"measurement": "PFS, OS, ORR, DCR and DOR of the patients that could be evaluated", "setting": "[2]; 28-day cycle", "result": "all good"},
      {"measurement": "12-week PFS rate", "setting": "[2]; 15 subjects who had achieved the evaluation of C3 (12 weeks) efficacy", "result": 60, "unit": "%"},
      {"measurement": "patients who achieved 12-week PFS", "setting": "[2]; of the 15 subjects evaluated at C3 (12 weeks)", "result": 9, "unit": "patients"}
    ]}
  ]
}
